Assays:
CDK4/cyclin D3 = molecular target: T1, CDK4/cyclin D3 (Homo sapiens, UniProt P11802); assay: Human CDK4/cyclin D3 inhibitory activity (QS S Assist CDK4/Cyclin D3_FP Kit, IMAP fluorescence polarization); assay type: biochemical; details: 50% inhibitory concentration against CDK4/cyclin D3, given as class symbol
T1 construct: purchased Carna Biosciences, Inc. QS S Assist CDK4/Cyclin D3_FP Kit
How it was run: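 IMAP fluorescence polarization kit: CDK4/cyclin D3 at 12.5-25 ng/well with kit ATP/substrate/metal mix in 20 mM HEPES pH 7.4, 0.01% Tween20, 2 mM DTT, 45 min at room temperature. FP read at 485/535 nm after 30 min binding; IC50 from dose-response fit of percent inhibition versus enzyme and no-enzyme controls.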

CDK2/cyclin A2 = molecular target: T2, CDK2/cyclin A2 (Homo sapiens, UniProt P24941); assay: Human CDK2/cyclin A2 inhibitory activity (QS S Assist CDK2/Cyclin A2_FP Kit, IMAP fluorescence polarization); assay type: biochemical; details: 50% inhibitory concentration against CDK2/cyclin A2, given as class symbol
T2 construct: purchased Carna Biosciences, Inc. QS S Assist CDK2/Cyclin A2_FP Kit
How it was run: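 Kinase activity read as fluorescence polarization (485/535 nm) after phosphorylated fluorescent substrate binds IMAP reagent (30 min, RT, dark). Enzyme (2.5 ng/well) reacted 60 min at RT with ATP/substrate/metal in HEPES pH 7.4 buffer with Tween 20 and DTT; no-enzyme wells define 0% activity; IC50 by curve fit.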

T1 sequence (P11802 whole entry): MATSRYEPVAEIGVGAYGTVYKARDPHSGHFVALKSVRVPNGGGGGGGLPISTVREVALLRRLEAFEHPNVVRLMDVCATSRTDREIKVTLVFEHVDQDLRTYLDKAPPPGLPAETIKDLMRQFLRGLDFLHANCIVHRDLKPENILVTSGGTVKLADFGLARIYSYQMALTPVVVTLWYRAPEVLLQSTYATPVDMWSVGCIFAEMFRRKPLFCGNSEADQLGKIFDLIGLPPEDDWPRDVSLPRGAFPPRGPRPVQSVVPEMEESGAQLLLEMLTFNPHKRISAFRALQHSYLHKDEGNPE
T1 sequence (P30281 whole entry partner): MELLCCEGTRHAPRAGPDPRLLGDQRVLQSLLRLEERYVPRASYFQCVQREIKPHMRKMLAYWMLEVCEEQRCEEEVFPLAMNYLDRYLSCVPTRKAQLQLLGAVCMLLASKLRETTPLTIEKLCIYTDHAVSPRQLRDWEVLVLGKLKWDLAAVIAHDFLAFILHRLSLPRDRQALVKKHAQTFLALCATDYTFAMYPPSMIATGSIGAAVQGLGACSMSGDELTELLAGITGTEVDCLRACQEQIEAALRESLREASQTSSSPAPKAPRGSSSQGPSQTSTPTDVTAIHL

| SMILES | IC50 (CDK4/cyclin D3) [nM] | IC50 (CDK2/cyclin A2) [nM] |
| --- | --- | --- |
| CC(C)Nc1nc([C@@H](C)O)c(Cl)c2cnc(Nc3ccc(N4CCC(O)CC4)nn3)nc12 [Compound 753] | < 10 | ≥ 100 |
| COC[C@H](C)Nc1nc([C@@H](C)O)cc2cnc(Nc3ccc(OCCN(C)C)cn3)nc12 [Compound 754] | 10 to 100 | ≥ 100 |
| CNCCOc1ccc(Nc2ncc3c(Cl)c([C@@H](C)O)nc(N[C@H]4CCCOC4)c3n2)nc1 [Compound 755] | < 10 | ≥ 100 |
| COC[C@H](C)Nc1nc([C@@H](C)O)c(Cl)c2cnc(Nc3ccc(N4CCNCC4=O)cn3)nc12 [Compound 756] | 10 to 100 | ≥ 100 |
| CNCCOc1ccc(Nc2ncc3cc([C@@H](C)O)nc(N[C@@H](C)COC)c3n2)nc1 [Compound 757] | < 10 | ≥ 100 |
| CNCCOc1ccc(Nc2ncc3c(Cl)c([C@@H](C)O)nc(N[C@@H](C)COC)c3n2)nc1 [Compound 758] | 10 to 100 | ≥ 100 |
| COC[C@H](C)Nc1nc([C@@H](C)O)c(Cl)c2cnc(Nc3ccc(N4CCC(O)CC4)nn3)nc12 [Compound 759] | 10 to 100 | ≥ 100 |
| COC[C@H](C)Nc1nc([C@@H](C)O)cc2cnc(Nc3ccc(N4CCC(O)CC4)nn3)nc12 [Compound 760] | 10 to 100 | ≥ 100 |
| COC1CCN(c2ccc(Nc3ncc4cc([C@@H](C)O)nc(N[C@H]5CCCOC5)c4n3)nn2)CC1 [Compound 762] | < 10 | ≥ 100 |
| CC(C)Nc1nc(C2CCOC2)cc2cnc(Nc3ccc(N4CCNCC4=O)cn3)nc12 (stereo not drawn) [Compound 763] | < 10 | ≥ 100 |
| CC(C)Nc1nc([C@@H](C)O)cc2cnc(Nc3ccc(N4CCN(C(=O)OC(C)C)CC4)nn3)nc12 [Compound 767] | < 10 | ≥ 100 |
| C[C@@H](O)c1cc2cnc(Nc3ccc(N4CCNCC4=O)cn3)nc2c(NC23CC(C2)C3)n1 [Compound 771] | < 10 | ≥ 100 |
| CC(CN(C)C)Oc1ccc(Nc2ncc3cc([C@@H](C)O)nc(N[C@H]4CCCOC4)c3n2)nc1 (stereo partly drawn) [Compound 781] | < 10 | ≥ 100 |
| C[C@@H](O)c1cc2cnc(Nc3ccc(OC[C@@H]4CCCN4)cn3)nc2c(N[C@H]2CCCOC2)n1 [Compound 782] | < 10 | ≥ 100 |
| C[C@@H](O)c1cc2cnc(Nc3ccc(OC[C@H]4CCCN4)cn3)nc2c(N[C@H]2CCCOC2)n1 [Compound 783] | < 10 | ≥ 100 |
| COC[C@@H](C)Nc1nc([C@@H](C)O)cc2cnc(Nc3ccc(OCCN(C)C)cn3)nc12 [Compound 785] | < 10 | ≥ 100 |
| C[C@@H](O)c1cc2cnc(Nc3ccc(O[C@H]4CC[C@H](N(C)C)CC4)cn3)nc2c(N[C@H]2CCCOC2)n1 [Compound 786] | < 10 | ≥ 100 |
| C[C@@H](O)c1cc2cnc(Nc3ccc(O[C@H]4CC[C@@H](N(C)C)CC4)cn3)nc2c(N[C@H]2CCCOC2)n1 [Compound 787] | < 10 | ≥ 100 |
| C[C@@H](O)c1cc2cnc(Nc3ccc(N4CCNCC4)nn3)nc2c(NC(C)(C)C)n1 [Compound 791] | < 10 | 10 to 100 |
| CC(C)Nc1nc([C@@H](C)O)cc2cnc(Nc3ccc(N4CCC(C(C)(C)C(=O)O)CC4)nn3)nc12 [Compound 794] | < 10 | ≥ 100 |
| C[C@@H](O)c1cc2cnc(Nc3ccc(OCC4CNC4)cn3)nc2c(N[C@H]2CCCOC2)n1 [Compound 800] | < 10 | ≥ 100 |
| C[C@@H](O)c1cc2cnc(Nc3ccc(OCC4CCN4)cn3)nc2c(N[C@H]2CCCOC2)n1 (stereo partly drawn) [Compound 802] | < 10 | ≥ 100 |
| C[C@@H](O)c1cc2cnc(Nc3ccc(O[C@H]4CCNC4)cn3)nc2c(N[C@H]2CCCOC2)n1 [Compound 803] | < 10 | ≥ 100 |

Next, values leading:

| IC50 (CDK4/cyclin D3) [nM] | IC50 (CDK2/cyclin A2) [nM] | SMILES |
| --- | --- | --- |
| < 10 | ≥ 100 | COC1CCN(c2ccc(Nc3ncc4cc([C@@H](C)O)nc(NC(C)C)c4n3)nn2)CC1 [Compound 761] |
| < 10 | ≥ 100 | CC(C)Nc1nc([C@@H](C)O)cc2cnc(Nc3ccc(N4CCNCC4C(F)(F)F)cn3)nc12 (stereo partly drawn) [Compound 764] |
| < 10 | ≥ 100 | CC(C)Nc1nc([C@@H](C)O)cc2cnc(Nc3ccc(N4CCN[C@@H](C(C)C)C4=O)cn3)nc12 [Compound 765] |
| 10 to 100 | ≥ 100 | CC(C)Nc1nc([C@@H](C)O)cc2cnc(Nc3ccc(N4CCN[C@H](C(C)C)C4=O)cn3)nc12 [Compound 766] |
| < 10 | ≥ 100 | CC(C)Nc1nc([C@@H](C)O)cc2cnc(Nc3ccc(NC(=O)C4CCNCC4)cn3)nc12 [Compound 768] |
| < 10 | ≥ 100 | CC(C)Nc1nc([C@@H](C)O)cc2cnc(Nc3ccc(NC(=O)C4CCCNC4)cn3)nc12 (stereo partly drawn) [Compound 769] |
| 10 to 100 | ≥ 100 | CC(C)Nc1nc([C@@H](C)O)cc2cnc(Nc3ccc(CN4CCC(C(=O)O)CC4)cn3)nc12 [Compound 770] |
| < 10 | ≥ 100 | CC(C)Nc1nc([C@@H](C)O)cc2cnc(Nc3ccc(O[C@@H]4CCC[C@H]4N)cn3)nc12 [Compound 772] |
| < 10 | ≥ 100 | CC(C)Nc1nc([C@@H](C)O)cc2cnc(Nc3ccc(N4CCNC(C(F)(F)F)C4)cn3)nc12 (stereo partly drawn) [Compound 777] |
| 10 to 100 | ≥ 100 | Cc1cc(Nc2ncc3cc([C@@H](C)O)nc(NC(C)C)c3n2)ncc1N1CCNCC1=O [Compound 780] |
| < 10 | ≥ 100 | CC(C)Nc1nc([C@@H](C)O)cc2cnc(Nc3ccc(N4CCC5(CCNCC5)C4=O)cn3)nc12 [Compound 784] |
| < 10 | ≥ 100 | CC(C)Nc1nc([C@@H](C)O)cc2cnc(Nc3ccc(NC(=O)C4CCCCN4)cn3)nc12 (stereo partly drawn) [Compound 788] |
| < 10 | ≥ 100 | CC(C)Nc1nc([C@@H](C)O)cc2cnc(Nc3cnc(N4CCNCC4)cn3)nc12 [Compound 789] |
| < 10 | ≥ 100 | CC(C)Nc1nc([C@@H](C)O)cc2cnc(Nc3ccc(C4CCN(C(C)(C)C(=O)O)CC4)nn3)nc12 [Compound 790] |
| 10 to 100 | ≥ 100 | CC(C)Nc1nc([C@@H](C)O)cc2cnc(Nc3ccc(N4CCC(C(=O)O)CC4)nn3)nc12 [Compound 792] |
| 10 to 100 | ≥ 100 | CC(C)Nc1nc([C@@H](C)O)cc2cnc(Nc3ccc(N4CCCC(C(=O)O)C4)nn3)nc12 (stereo partly drawn) [Compound 793] |
| < 10 | 10 to 100 | C[C@@H](O)c1cc2cnc(Nc3ccc(N4CCNCC4=O)cn3)nc2c(NC(C)(C)C)n1 [Compound 795] |
| < 10 | ≥ 100 | CC(C)Nc1nc([C@@H](C)O)cc2cnc(Nc3ccc(C4CCN(C(C)(C)C(=O)O)CC4)cn3)nc12 [Compound 796] |
| 10 to 100 | ≥ 100 | CC(C)Nc1nc([C@@H](C)O)cc2cnc(Nc3ccc(N4CCC(CC(=O)O)CC4)nn3)nc12 [Compound 797] |
| < 10 | ≥ 100 | CC(C)Nc1nc([C@@H](C)O)cc2cnc(Nc3ccc(C4COCCN4)cn3)nc12 (stereo partly drawn) [Compound 798] |
| < 10 | ≥ 100 | CNC1CCCC1Oc1ccc(Nc2ncc3cc(C(C)O)nc(NC(C)C)c3n2)nc1 (stereo not drawn) [Compound 799] |
| < 10 | ≥ 100 | CNC1CCCC1Oc1ccc(Nc2ncc3cc(C(C)O)nc(NC(C)C)c3n2)nc1 (stereo not drawn) [Compound 801] |

From US10124004B2, “Pyrido[3,4-d]pyrimidine derivative and pharmaceutically acceptable salt thereof” (Teijin Pharma Limited, priority 2015, dated 2018)
